Bounds are passed on as bounds.

One series concerns the target AChE (Electrophorus electricus, UniProt O42275). Nature of the series: biochemical. It counts as biochemical. The following applies: for IC50: tested at 5–80 μg/mL.
Series [1] deals with A549 human lung adenocarcinoma cells. Nature of the series: MTT cytotoxicity assay, A549. It counts as cell-based. The following applies: for cytotoxicity (in words): A549, at the concentrations used; for IC50: Homo sapiens, A549, MTT, 24 h, read-out: IC50 A549 Cell Line. On the procedure:
(§1) C6 Rat glioma and NIH/3T3 mouse embryonic fibroblast cells were incubated in Dulbecco’s Modified Eagle’s Medium (DMEM) (Sigma, Deisenhofen, Germany) supplemented with 10% fetal calf serum (Gibco, Paisley, UK). A549 Human lung adenocarcinoma cells were incubated in 90% RPMI supplemented with 10% fetal bovine serum (Gibco). […] Exponentially growing cells were plated at 2 × 10^4 cells/mL into 96-well microtiter tissue culture plates (Nunc, Roskilde, Denmark) and incubated for 24 h before the addition of the drugs (the optimum cell number for cytotoxicity assays was determined in preliminary experiments).
(§2) The level of cellular 3-(4,5-dimethylthiazol-2-yl)-2,5-diphenyltetrazolium bromide (MTT) (Sigma) reduction was quantified as previously described in the literature with small modifications. […] At the end of this period, MTT was added to a final concentration of 0.5 mg/mL and the cells were incubated for 4 h at 37 °C. After the medium was removed, the formazan crystals formed by MTT metabolism were solubilized by addition of 200 µL DMSO to each well and absorbance was read at 540 nm with a microtiter plate spectrophotometer (Bio-Tek Plate Reader, Winooski, VT, USA). Every concentration was repeated in three wells.

The target of the next series is BuChE (Homo sapiens, UniProt P06276). As to the kind of experiment: BuChE inhibition, modified Ellman's method. It counts as biochemical. The note with it: for IC50: tested at 5–80 μg/mL.
Chain of BuChE (P06276 29-602): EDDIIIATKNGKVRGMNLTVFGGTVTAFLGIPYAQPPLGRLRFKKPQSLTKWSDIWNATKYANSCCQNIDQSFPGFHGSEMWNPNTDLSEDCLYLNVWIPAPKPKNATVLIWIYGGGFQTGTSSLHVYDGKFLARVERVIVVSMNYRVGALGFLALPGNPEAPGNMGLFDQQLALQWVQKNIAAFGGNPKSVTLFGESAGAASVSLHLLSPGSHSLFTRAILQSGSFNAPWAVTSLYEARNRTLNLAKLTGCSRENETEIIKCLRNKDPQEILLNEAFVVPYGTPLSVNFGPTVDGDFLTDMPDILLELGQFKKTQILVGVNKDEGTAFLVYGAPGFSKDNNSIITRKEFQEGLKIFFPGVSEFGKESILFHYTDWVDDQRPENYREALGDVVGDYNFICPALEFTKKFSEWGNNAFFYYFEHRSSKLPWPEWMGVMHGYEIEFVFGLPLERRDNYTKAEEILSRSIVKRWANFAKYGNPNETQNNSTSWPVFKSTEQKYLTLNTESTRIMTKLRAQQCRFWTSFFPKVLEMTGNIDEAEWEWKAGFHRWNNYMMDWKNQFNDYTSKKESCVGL
For the next series, the system named is C6 rat glioma cells. Nature of the series: MTT cytotoxicity assay, C6. It counts as cell-based. The following applies: for cytotoxicity (in words): C6, at the concentrations used; for IC50: Rattus norvegicus, C6, MTT, 24 h, read-out: IC50 C6 Cell Line. On the procedure: as §1, §2
Series [2] concerns NIH/3T3 mouse embryonic fibroblast cells. Nature of the series: MTT cytotoxicity assay, NIH/3T3. It counts as cell-based. The note with it: NIH3T3, 24 h, read-out: IC50 NIH/3T3 Cell Line. On the procedure: C6 Rat glioma and NIH/3T3 mouse embryonic fibroblast cells were incubated in Dulbecco’s Modified Eagle’s Medium (DMEM) (Sigma, Deisenhofen, Germany) supplemented with 10% fetal calf serum (Gibco, Paisley, UK). A549 Human lung adenocarcinoma cells were incubated in 90% RPMI supplemented with 10% fetal bovine serum (Gibco). All media were supplemented with 100 IU/mL penicillin-streptomycin (Gibco) and cells were incubated at 37 °C in a humidified atmosphere of 95% air and 5% CO2. Exponentially growing cells were plated at 2 × 10^4 cells/mL into 96-well microtiter tissue culture plates (Nunc, Roskilde, Denmark) and incubated for 24 h before the addition of the drugs (the optimum cell number for cytotoxicity assays was determined in preliminary experiments). The stock solutions of the compounds were prepared in dimethyl sulfoxide (DMSO; Sigma Aldrich, Poole, UK) and further dilutions were made with fresh culture medium (the concentration of DMSO in the final culture medium was <0.1% which had no effect on the cell viability).
as §2

Series [3] concerns C6 cells. As to the kind of experiment: DNA synthesis inhibition (BrdU ELISA), C6. It counts as cell-based, rat. The following applies: C6, compound at its IC50, 24 h. On the procedure: (§3) The immunostaining procedure was carried out with specific anti-BrdU antibodies in the S-phase of the cell cycle. DNA synthesis inhibitory effects of all compounds were evaluated for 24 h. A549 and C6 cell lines were incubated with three different concentrations of the compounds that were determined according to their IC50 values. Cisplatin was used as a positive control.
(§4) Analysis of DNA synthesis was measured by a Cell Proliferation ELISA, BrdU (colorimetric) kit (Roche, Mannheim, Germany). This immunostaining procedure is based on measuring the incorporation of bromodeoxyuridine (BrdU) into nuclear DNA in place of thymidine during the S-phase of the cell cycle using specific anti-BrdU antibodies. […] Firstly cells were seeded into 96 well flat-bottomed microtiter plates at a density of 2 × 10^3. […] Microtiter plates were incubated at 37 °C in a 5% CO2/95% air humidified atmosphere for 24 h. Cells were labeled with 10 µL BrdU solution for 2 h and then fixed. Anti-BrdU-POD (100 µL) was added and incubated for 90 min. Finally, wells were washed with BPS and cells were incubated with substrate. Absorbance of the samples was measured with an ELX808-IU Bio-Tek apparatus at 492 nm. All experiments were repeated two times. For each compound dose, dublicate wells were used.

The subject of series [4] is A549 cells. Nature of the series: DNA synthesis inhibition (BrdU ELISA), A549. It counts as cell-based, human. The following applies: A549, compound at its IC50, 24 h. On the procedure:
as §3, §4

Series [5] concerns C6 cells. As to the kind of experiment: Annexin V-PI flow cytometry of apoptosis, C6. It counts as cell-based. The following applies: IC50 dose, 24 h. On the procedure:
(§5) Annexin V staining protocol was applied according to the manufacturer’s instructions (BD Pharmingen). The cells were then briefly washed with cold phosphate buffer saline (PBS) and suspended in a binding buffer at a concentration of 1 × 10^6 cells/mL. Then, 100 µL of this solution containing 1 × 10^5 cells was transferred to a 5 mL test tube. After 5 µL of Annexin-V and PI was added, the cells were incubated for 15 min at room temperature in the dark. Then 400 µL of 1x Binding Buffer was added to each tube and the cells were processed for data acquisition, and analyzed on a Becton–Dickinson FACS Aria using […] Version 6.1.1. Software (BD Biosciences, San Jose, CA, USA).

The test system of series [6] is A549 cells. Nature of the series: Mitochondrial membrane potential (JC-1) flow cytometry, A549. It counts as cell-based, human. The following applies: IC50 dose, 24 h. On the procedure: (§6) During apoptosis, several key events occur in mitochondria including the release of cytochrome c, changes in electron transport, and loss of mitochondrial transmembrane potential (ΔΨm). For this reason, ΔΨm is an important parameter of mitochondrial function in apoptosis.
(§7) The cells were seeded in six-well plates at a density of 10^5 cells/mL, and the IC50 dose of compounds 2, 5 and 10 was added to cells. The cells were incubated in 5% CO2 air-conditioned atmosphere at 37 °C. […] 5,5′,6,6′-Tetrachloro-1,1′,3,3′-tetraethylbenzimidazolylcarbocyanine iodide (JC-1) dye solution (1× assay buffer + JC-1 stock solution) was added to the cells. The stock solution was prepared by dissolving DMSO. Then the samples were incubated at a temperature of 37 °C for 10–15 min. After incubation, the cells were washed twice with an assay buffer and analyzed by BD FACS Aria Cell Sorter Software version 6.1.1 flow cytometry (BD Biosciences). The cells showing mitochondrial membrane potential disruption were determined as a percentage of all cells.

Series [7] deals with A549 cells. Nature of the series: Annexin V-PI flow cytometry of apoptosis, A549. It counts as cell-based. The note with it: IC50 dose, 24 h. On the procedure:
as §5

In series [8] the test system is C6 cells. As to the kind of experiment: Mitochondrial membrane potential (JC-1) flow cytometry, C6. It counts as cell-based, rat. The note with it: IC50 dose, 24 h. On the procedure: as §6, §7

Chain of AChE (O42275 24-633): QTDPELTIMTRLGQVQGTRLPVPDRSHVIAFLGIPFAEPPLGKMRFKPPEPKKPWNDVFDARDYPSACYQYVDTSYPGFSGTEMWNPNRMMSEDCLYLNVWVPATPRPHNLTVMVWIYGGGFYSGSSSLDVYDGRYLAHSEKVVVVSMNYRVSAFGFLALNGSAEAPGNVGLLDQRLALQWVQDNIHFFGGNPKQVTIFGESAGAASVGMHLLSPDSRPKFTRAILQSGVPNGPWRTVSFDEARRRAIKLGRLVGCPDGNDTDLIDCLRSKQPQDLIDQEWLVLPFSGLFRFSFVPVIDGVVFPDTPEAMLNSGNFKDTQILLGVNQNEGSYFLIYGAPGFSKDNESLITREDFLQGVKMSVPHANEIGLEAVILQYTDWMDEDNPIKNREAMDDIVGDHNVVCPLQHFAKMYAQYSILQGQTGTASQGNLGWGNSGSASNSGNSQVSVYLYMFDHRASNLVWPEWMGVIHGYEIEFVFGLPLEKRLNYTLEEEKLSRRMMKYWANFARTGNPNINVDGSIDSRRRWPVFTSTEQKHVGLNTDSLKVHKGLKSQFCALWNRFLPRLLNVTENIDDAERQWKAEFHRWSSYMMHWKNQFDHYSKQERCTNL

For the compound `S=C(NN=Cc1ccccc1)Nc1ccc2c(c1)OCO2` [Compound 1, 4-(1,3-Benzodioxole-5-yl)-1-(benzylidene)thiosemicarbazide], the IC50 on AChE was > 267 µM; in series [1] it was > 167 µM; on BuChE, > 213 µM; with C6 rat glioma cells, > 167 µM; in series [2], > 167 µM. The “cytotoxicity (in words)” value (in [1]; with C6 rat glioma cells) was “no significant cytotoxicity” throughout.

Take `O=[N+]([O-])c1ccc(C=NNC(=S)Nc2ccc3c(c2)OCO3)cc1` [Compound 2, 4-(1,3-Benzodioxole-5-yl)-1-(4-nitrobenzylidene)thiosemicarbazide]: the IC50 against AChE is > 232 µM; in [1], 24 ± 3.46 µM; on BuChE it was > 213 µM; in the series with C6 rat glioma cells it was 23.3 ± 2.08 µM; in [2], > 145 µM. Further, the “DNA synthesis inhibition percent” value in the series with C6 cells [3] was 63.34%; with A549 cells [4], 59.85%. In addition, the “Early and Late Apoptotic Cells % C6 Cells” value in the series on C6 cells [5] stood at 5.4%. Moreover, the “Viability % C6 Cells” value in the series with C6 cells [5] is given as 94.5%. Besides, the “P2 (%) mitochondrial membrane polarized cells, A549 Cells” value with A549 cells [6] came out at 4.5%. Also, in the series on A549 cells [6], the “P3 (%) mitochondrial membrane depolarized cells, A549 Cells” value turned out to be 9.8%. Further, in the series with A549 cells [7], the “Early and Late Apoptotic Cells % A549 Cells” value worked out at 23.7%. In the series with A549 cells [7], the “Viability % A549 Cells” value came to 75.2%. Moreover, in the series on C6 cells [8], the “P2 (%) mitochondrial membrane polarized cells, C6 Cells” value is 44.8%. Moreover, the “P3 (%) mitochondrial membrane depolarized cells, C6 Cells” value in the series with C6 cells [8] turned out to be 21.1%.

On to `N#Cc1ccc(C=NNC(=S)Nc2ccc3c(c2)OCO3)cc1` [Compound 3, 4-(1,3-Benzodioxole-5-yl)-1-(4-cyanobenzylidene)thiosemicarbazide], for which the “inhibitory activity against AChE (in words)” value against AChE is “did not show any inhibitory activity”. For the same compound, the IC50 against AChE was > 213 µM; in [1], 28 ± 1 µM; against BuChE, > 213 µM; in the series on C6 rat glioma cells it was 49.3 ± 1.15 µM; in series [2] it was > 154 µM. For the same compound, the “DNA synthesis inhibition percent” value in the series with C6 cells [3] is 54.99%; with A549 cells [4], 53.24%.

`CN(C)c1ccc(C=NNC(=S)Nc2ccc3c(c2)OCO3)cc1` [Compound 4, 4-(1,3-Benzodioxole-5-yl)-1-(4-dimethylaminobenzylidene)thiosemicarbazide]: the IC50 on AChE is > 234 µM; in [1] it was > 146 µM; on BuChE, > 213 µM; in the series with C6 rat glioma cells, > 146 µM; in series [2] it was > 146 µM. In addition, the “cytotoxicity (in words)” value (in series [1]; in the series on C6 rat glioma cells) was “no significant cytotoxicity” in each case.

For the compound `S=C(NN=Cc1ccc(-c2ccccc2)cc1)Nc1ccc2c(c1)OCO2` [Compound 5, 4-(1,3-Benzodioxole-5-yl)-1-[(biphenyl-4-yl)methylene]thiosemicarbazide], on AChE, the “inhibitory activity against AChE (in words)” value is given as “did not show any inhibitory activity”. Moreover, the IC50 against AChE is > 213 µM; in [1], 10.7 ± 1.53 µM; against BuChE, > 213 µM; in the series on C6 rat glioma cells, 4.33 ± 1.04 µM; in series [2], 21.3 ± 5.77 µM. Moreover, the “DNA synthesis inhibition percent” value with C6 cells [3] is listed as 62.98%; with A549 cells [4] it was 57.79%. Also, the “Early and Late Apoptotic Cells % C6 Cells” value in the series on C6 cells [5] is listed as 25.0%. For the same compound, in the series with C6 cells [5], the “Viability % C6 Cells” value is recorded as 60.2%. Also, the “P2 (%) mitochondrial membrane polarized cells, A549 Cells” value with A549 cells [6] is reported as 52.7%. The “P3 (%) mitochondrial membrane depolarized cells, A549 Cells” value with A549 cells [6] amounted to 24.6%. In addition, the “Early and Late Apoptotic Cells % A549 Cells” value in the series with A549 cells [7] was found to be 12.11%. In addition, the “Viability % A549 Cells” value in the series with A549 cells [7] was found to be 81.8%. For the same compound, in the series with C6 cells [8], the “P2 (%) mitochondrial membrane polarized cells, C6 Cells” value came out at 49.8%. Also, the “P3 (%) mitochondrial membrane depolarized cells, C6 Cells” value with C6 cells [8] is 45.0%.

For the compound `Fc1ccc(C=NNC(=S)Nc2ccc3c(c2)OCO3)cc1` [Compound 6, 4-(1,3-Benzodioxole-5-yl)-1-(4-fluorobenzylidene)thiosemicarbazide], the IC50 against AChE was > 252 µM; in series [1], > 158 µM; against BuChE, > 213 µM; with C6 rat glioma cells, > 158 µM; in series [2], 2.87 ± 0.05 µM. Also, the “cytotoxicity (in words)” value (in series [1]; with C6 rat glioma cells) was “no significant cytotoxicity” each time.

Turning to `S=C(NN=Cc1ccc(Cl)cc1)Nc1ccc2c(c1)OCO2` [Compound 7, 4-(1,3-Benzodioxole-5-yl)-1-(4-chlorobenzylidene)thiosemicarbazide], the IC50 against AChE is > 240 µM; in series [1], > 150 µM; at BuChE it was > 240 µM; in the series with C6 rat glioma cells, > 150 µM; in series [2], 9.5 ± 2.5 µM. Also, the “cytotoxicity (in words)” value (in series [1]; in the series on C6 rat glioma cells) was “no significant cytotoxicity” each time. The “inhibition on BuChE (in words)” value against BuChE was “weak inhibition”.

Regarding `S=C(NN=Cc1ccc(Br)cc1)Nc1ccc2c(c1)OCO2` [Compound 8, 4-(1,3-Benzodioxole-5-yl)-1-(4-bromobenzylidene)thiosemicarbazide], the IC50 is > 212 µM at AChE; > 132 µM in [1]; > 212 µM on BuChE; > 132 µM in the series with C6 rat glioma cells; 9.16 ± 2.47 µM in [2]. For the same compound, the “cytotoxicity (in words)” value (in [1]; with C6 rat glioma cells) was “no significant cytotoxicity” each time. At BuChE, the “inhibition on BuChE (in words)” value is recorded as “weak inhibition”.

In the case of `S=C(NN=Cc1ccc(Cl)c(Cl)c1)Nc1ccc2c(c1)OCO2` [Compound 9, 4-(1,3-Benzodioxole-5-yl)-1-(3,4-dichlorobenzylidene)thiosemicarbazide], the IC50 against AChE was 205 ± 5 µM; in series [1], 51.5 ± 4.95 µM; against BuChE, > 213 µM; in the series with C6 rat glioma cells it was 25.3 ± 1.53 µM; in series [2] it was > 136 µM. Besides, the “DNA synthesis inhibition percent” value is given as 37.71% in the series on C6 cells [3] and 27.3% with A549 cells [4].

The values above are taken from article PMC6273715, “Synthesis and Evaluation of New Benzodioxole- Based Thiosemicarbazone Derivatives as Potential Antitumor Agents” (Molecules, 2016).
